Results taken from patent US10478440B2, “Pharmaceutical compositions for inhibiting angiogenesis comprising plant-derived natural compound” (INDUSTRY-ACADEMIC COOPERATION FOUNDATION, YONSEI UNIVERSITY, priority 2011, dated 2019).

Assays:
HUVECs [1] = assay: Nicotine-induced tube formation of HUVECs; assay type: cell-based, human; conditions: nicotine 10 nM
Method: Serum-starved HUVECs were stimulated by nicotine (10 nM) in the presence or absence of voacangine. […] The basal level capillary tube formation (a) and invasiveness (b) of HUVECs that remained in serum-free media were normalized to 100%. Matrigel (10 mg/mL) was used to coat a 48-well plate and allowed to polymerize for 1 h at 37° C. HUVECs (6×10^4 cells) were seeded on the surface of the Matrigel, and then test compounds were added for 4-16 h at 37° C. in the presence or absence of VEGF (30 ng/mL). Morphological changes in the cells and formation of tubular structures were observed under a microscope (IX71, Olympus) and photographed at 100× magnification (DP70, Olympus).

HUVECs [2] = assay: Nicotine-induced endothelial cell invasion; assay type: cell-based, human; conditions: nicotine 10 nM
Method: Serum-starved HUVECs were stimulated by nicotine (10 nM) in the presence or absence of voacangine. […] The basal level capillary tube formation (a) and invasiveness (b) of HUVECs that remained in serum-free media were normalized to 100%. To examine the invasiveness of HUVECs in vitro, we used a Transwell chamber system with 8.0-μm pore polycarbonate filter inserts. Briefly, the lower side of the filter was coated with gelatin (10 μL, 1 mg/mL) and the upper side was coated with Matrigel (10 μL, 3 mg/mL). […] The chamber was incubated at 37° C. for 18 h, and then the cells were fixed with 70% methanol and stained with hematoxylin and eosin. The invasiveness of cells was measured by counting the number of whole cells in the lower side of the filter using a microscope at 100× magnification, and cells were photographed at 100× magnification.

HT1080 = assay: MTT cell proliferation assay, HT1080; assay type: cell-based; conditions: Homo sapiens, HT-1080; HT1080, cancer cells
[3] = tested on: chick embryo chorioallantoic membrane (CAM); assay: Chorioallantoic membrane (CAM) assay; assay type: in vivo, chicken
Method: The CAM assay was performed as described previously. Fertilized chicken eggs were kept in a humidified incubator at 37° C. for 3 days. Approximately 2-3 mL of egg albumin was removed with a hypodermic needle, allowing the CAM and yolk sac to drop away from the shell membrane. […] After further incubation for 2 days, 2-3 mL of Intralipose (Greencross Co, Suwon, Korea) was injected beneath the CAM and the membrane was observed under a microscope. Retinoic acid (RA) was used as a positive control.

VEGF = assay: Measurement of VEGF by ELISA; assay type: cell-based, human; conditions: HepG2 cells
Method: The VEGF concentration in media from voacangine-treated cells was determined using a VEGF Immunoassay kit (R&D Systems, Minneapolis, Minn.) according to the manufacturer's instructions. The results were expressed as concentration of VEGF relative to the total amount of VEGF from each well.

HepG2 = assay: MTT cell proliferation assay, HepG2; assay type: cell-based; conditions: Homo sapiens; HepG2, cancer cells
Method: (§1) Human umbilical vascular endothelial cells (HUVECs) were grown for 7-11 passages in EGM-2 medium supplemented with 10% FBS. HepG2 (human liver carcinoma) cells were grown in RPMI 1640 containing 10% FBS and 1% antibiotics. All cell lines were maintained at 37° C. in a humidified 5% CO2 incubator. Cell proliferation was measured using a 3-(4,5-dimethylthiazol-2-yl)-2,5-diphenyltetrazolium bromide (MTT) colorimetric assay, and cell viability was assessed using Trypan blue staining.

HUVECs [4] = assay: Trypan blue cell viability; conditions: doses up to 20 μM for 3 days
HUVECs [5] = assay: MTT cell proliferation assay, HUVECs; assay type: cell-based, human
Method: as §1

HUVECs [6] = assay: Capillary tube formation assay (VEGF-induced); assay type: cell-based, human; conditions: VEGF 30 ng/mL, serum-starved HUVECs
Method: Matrigel (10 mg/mL) was used to coat a 48-well plate and allowed to polymerize for 1 h at 37° C. HUVECs (6×10^4 cells) were seeded on the surface of the Matrigel, and then test compounds were added for 4-16 h at 37° C. in the presence or absence of VEGF (30 ng/mL). Morphological changes in the cells and formation of tubular structures were observed under a microscope (IX71, Olympus) and photographed at 100× magnification (DP70, Olympus).

HUVECs [7] = assay: In vitro tumor cell-induced angiogenesis assay (combinated-chemoinvasion assay); assay type: cell-based, human; conditions: HepG2 in lower chamber, without VEGF
Method: To examine the invasive activity of […], a Transwell chamber system with 8.0-μm pore polycarbonate filter inserts was used. Briefly, the lower side of the filter was coated with gelatin (10 μL, 1 mg/mL) and the upper side was coated with Matrigel (10 μL, 3 mg/mL). Next, tumor cell HepG2 was added to the lower chamber. Test compounds were added to the lower chamber without VEGF and HUVECs (7×10^5 cells) were placed in the upper chamber of the filter. The chamber was incubated at 37° C. for 18 h, and then the cells were fixed with 70% methanol and stained with hematoxylin and eosin. Invasiveness was measured by counting the number of whole cells on the lower side of the filter using a microscope at 100× magnification, and cells were photographed at 100× magnification.

capsaicin contraction = conditions: literature [9]; cited from earlier work
HIF-1α = assay: Western blot of HIF-1α under hypoxic conditions; assay type: cell-based, human; conditions: HepG2 cells during hypoxia
Method: The cell lysates were separated by 10% SDS-PAGE, followed by transfer to PVDF membranes (Millipore, Bedford, Mass.) using standard electroblotting procedures. Blots were then blocked and immunolabeled overnight at 4° C. with primary antibodies, including anti-HIF-1α and anti-tubulin antibodies. Immunolabeling was detected by an enhanced chemiluminescence (ECL) kit (GE Healthcare, Buckinghamshire, UK) according to the manufacturer's instructions. For hypoxic conditions, cells were incubated at 5% CO2 with 1% O2 balanced with N2 in an anaerobic chamber (Forma).

CHANG = assay: MTT cell proliferation assay, CHANG; assay type: cell-based; conditions: normal cells
HeLa = assay: MTT cell proliferation assay, HeLa; assay type: cell-based; conditions: Homo sapiens, cancer cells
HUVECs [8] = assay: Chemoinvasion assay (VEGF-induced); assay type: cell-based, human; conditions: VEGF 30 ng/mL, serum-starved HUVECs
Method: To examine the invasiveness of HUVECs in vitro, we used a Transwell chamber system with 8.0-μm pore polycarbonate filter inserts. Briefly, the lower side of the filter was coated with gelatin (10 μL, 1 mg/mL) and the upper side was coated with Matrigel (10 μL, 3 mg/mL). Test compounds were added to the lower chamber in the presence of VEGF (30 ng/mL), and HUVECs (7×10^5 cells) were placed in the upper chamber of the filter. The chamber was incubated at 37° C. for 18 h, and then the cells were fixed with 70% methanol and stained with hematoxylin and eosin. The invasiveness of cells was measured by counting the number of whole cells in the lower side of the filter using a microscope at 100× magnification, and cells were photographed at 100× magnification.

For `CN1CCCC1c1cccnc1` (stereo not drawn) [nicotine, reference compound], the “increase of angiogenesis (tube formation) activity” value (HUVECs [1]; serum-starved HUVECs) was 2.5 fold and the “increase of cell invasion activity” value (HUVECs [2]; serum-starved HUVECs) was 2.0 fold.
For `CC[C@H]1C[C@@H]2CN3CCc4c([nH]c5ccc(OC)cc45)[C@](C(=O)OC)(C2)C13` [voacangine, 12-methoxyibogamine-18-carboxylic acid methyl ester], the IC50 (HT1080) was 33 µM, the “capillary formation during CAM development” value ([3]; 2 and 4 μg/egg, 2 days) was “dose-dependently inhibited capillary formation” and the “signs of thrombosis or hemorrhage in CAM” value ([3]; 2 days treatment) was “no apparent signs of thrombosis or hemorrhage”. The “hypoxia-induced expression of VEGF” value (VEGF) was “inhibited the hypoxia-induced expression of VEGF”, the IC50 (HepG2) was 42 µM and the “cytotoxicity on HUVECs (trypan blue exclusion)” value (HUVECs [4]) was “no cytotoxicity”. The cell growth (HUVECs [5]; 10 μM, 3 days, MTT) was “inhibited cell growth”, the IC50 (HUVECs [5]; Homo sapiens, HUVEC, HUVECs, normal cells) was 18 µM and the “growth inhibition on HUVECs versus other cell lines” value (HUVECs [5]; compared with other normal and cancer cell lines (Table 1)) was “greater growth inhibition effect on HUVECs than on other normal and cancer cell lines”. For the same molecule, the VEGF-induced tube formation (HUVECs [6]) was “inhibited VEGF-induced tube formation in a dose-dependent manner”, the “nicotine-induced angiogenesis (tube formation)” value (HUVECs [1]) was “inhibit nicotine-induced angiogenesis” and the “tumor cell-induced invasiveness of HUVECs by hypoxia” value (HUVECs [7]) was “dose-dependently inhibited”. For the same molecule, the capsaicin contraction (capsaicin contraction) was “inhibit capsaicin contraction in a dose-dependent manner”, the “expression level of HIF-1α” value (HIF-1α) was “dose-dependently reduced” and the “synthesis of cyclin D1 and tubulin” value (HIF-1α; Western blot) was “without inhibiting the synthesis of other proteins”. The “nicotine-induced invasion of HUVECs” value (HUVECs [2]) was “inhibit nicotine-induced angiogenesis and invasion of HUVECs in a dose-dependent manner”, the IC50 (CHANG) was 26 µM and the IC50 (HeLa) was 23 µM. For the same molecule, the “VEGF-induced invasiveness of HUVECs” value (HUVECs [8]) was “inhibited the VEGF-induced enhanced invasiveness of HUVECs in a dose-dependent manner”.
